# In patent publication US5236904A, “Erection-inducing methods and compositions” (Senetek, plc, priority 1989, dated 1993):
# “Also recorded” adds a separate entry of the source.
# Legend:
# [1] = test system: human males; conditions: cited from earlier work; for priapism: treatment of impotence
# [2] = test system: males who are impotent due to severe atherosclerosis; conditions: cited from earlier work; for efficacy in impotence due to severe atherosclerosis: in vivo
# [3] = test system: males with psychogenic or neurogenic dysfunction, severe atherosclerosis not involved; conditions: cited from earlier work; for erection on intracavernosal injection: severe atherosclerosis not involved
# [4] = aqueous composition; cited from earlier work
# [5] = test system: human suffering from impotence, of which severe atherosclerosis is a cause; assay: Intracavernosal injection coupled with sexual stimulation in males with impotence caused by severe atherosclerosis; type: in vivo
# Description: Thus, between about 0.1 ml and about 5 ml, and preferably about 1 ml, of a physiologically acceptable composition comprising one of VIP or PHM or a mixture thereof and an alpha-adrenergic blocker is administered as a bolus by intracavernosal injection during, or prior to the initiation of, sexual stimulation and preferably with the penis constricted at its base for between about 1 minute and about 15 minutes (preferably about 5 minutes-about 10 minutes) after the injection.
# [6] = test system: normal male; conditions: cited from earlier work
# [7] = test system: human males; conditions: in vivo
# Description: Priapism is a serious, deleterious side effect of treatment of erectile insufficiency with these drugs. Beyond the embarrassment that may be caused for some men, priapism is usually painful, irreversibly damages erectile tissue, and, to be relieved, requires bleeding or pharmacological intervention (e.g., injection of a sympathomimetic drug such as adrenaline).
# Preferably 1 ml of the preferred composition is administered as a bolus by injection into a corpus cavernosum while the penis is constricted at its base with a tourniquet. About 5-10 minutes after the injection, the tourniquet is released and, if not already started before the tourniquet is released, sexual stimulation is begun.
compound,measurement,setting,value
CC(COc1ccccc1)N(CCCl)Cc1ccccc1 (centres unmarked) [phenoxybenzamine],priapism,[1],often results in priapism
same,efficacy in impotence due to severe atherosclerosis,[2],not susceptible to treatment
same,erection on intracavernosal injection,[3],cause an erection sufficient for vaginal penetration
Cc1ccc(N(CC2=NCCN2)c2cccc(O)c2)cc1 [phentolamine],efficacy in impotence due to severe atherosclerosis,[2],not susceptible to treatment
same,stability in solution,[4],lability
same,duration of erection,[3]; compared with papaverine or phenoxybenzamine,significantly shorter duration
same,erection on intracavernosal injection,[3],causes an erection sufficient for vaginal penetration
COc1ccc(Cc2nccc3cc(OC)c(OC)cc23)cc1OC [papaverine],pain after injection,[1]; even if priapism does not occur,"painful, burning sensation in the first two or so minutes after the injection"
same,fibrosis,[1]; repeated use,"undesirable, extensive intracavernous fibrosis"
same,priapism,[1],often results in priapism
same,efficacy in impotence due to severe atherosclerosis,[2],ineffective; also recorded: not susceptible to treatment
same,erection on intracavernosal injection,[3],cause an erection sufficient for vaginal penetration
human vasoactive intestinal peptide [VIP],systemic side effects due to administration,[1]; background statement,flushing of the skin and hypotension
same,"induction of erections, VIP alone coupled with sexual stimulation",[2]; impotent due to severe atherosclerosis,does not induce erections
same,erection sufficient for vaginal penetration,"[5]; 30 μg neuropeptide together with alpha-adrenergic blocker, in most cases",sufficient to induce an erection sufficient for vaginal penetration
same,"treatment of impotence, neuropeptide in combination with an alpha-adrenergic blocker","[5]; intracavernosal injection with alpha-adrenergic blocker such as phentolamine or prazosin, coupled with sexual stimulation",treated effectively
same,"induction of erections, neuropeptide alone",[5]; without alpha-adrenergic blocker,not effective
same,erectile response with sexual stimulation,"[6]; as little as 1 μg (at 1 μg/ml of diluent), visual and/or vibration stimulation",facilitates full erection
same,erectile response without sexual stimulation,"[6]; up to 20 μg (at 20 μg/ml of diluent), no sexual stimulation",only slight swelling (slight tumescence) of the penis but not an erection
same,priapism or burning pain on induction of an erection,[7],does not entail priapism or the burning pain
